Data from patent publication US6893665B2, “Formulations for treating or preventing mucositis” (Orapharma, Inc., priority 1999, dated 2005).
Where a name gives a salt, the structure may show the parent alone.

Tested on: mucositis induced by acute radiation exposure of the cheek pouch
Experiment: Hamster cheek pouch model of radiation-induced oral mucositis, topical dosing, clinical scoring 0-5
Format: in vivo
Settings: hamsters, 35 Gy on Day 0, 0.1 mL of 0.1 mg/mL aqueous solution topically three times a day for 22 days; for mucositis scores (clinical scoring 0-5) versus placebo control group: compared with solution without drug
Method: Hamsters were randomly assigned to treatment groups with eight (8) animals per group. Each group was treated either with a drug solution or a control, water.
Animals were dosed three times a day for 22 days. The first dose was applied on day —1. Either a solution of the drug or water alone was applied in a volume of 0.1 ml three times per day.
Mucositis was induced by acute radiation exposure of the check pouch. A single dose of radiation (35 Gy/dose) was administered to all animals on Day 0. Prior to irradiation, animals were anesthetized with an intraperiotoneal injection of sodium pentobarbital (80 mg/kg) and the left buccal pouch was everted, fixed and isolated using a lead shield.
Beginning on day 6 and continuing every other day up to day 28, the cheek pouch was photographed. On days that photographs were taken, prior to the first dosing of the day, the animals were anesthetized using an inhalation anesthetic and the left cheek pouch of each animal was rinsed vigorously with sterile water to remove residual food debris or foreign contamination and blotted dry with a gauze sponge. The appearance of the cheek pouch was scored visually by comparison to a validated photographic scale, ranging from 0 for normal to 5 for severe ulceration (clinical scoring). In descriptive terms, this scale is defined as follows: […]
A score of 1-2 represents mild stage of the disease, whereas a score of 3-5 indicates moderate to severe mucositis.

Row | Compound | reduction in the number of animal days with scores of 3 or more, relative to the control group | mucositis scores (clinical scoring 0-5) versus placebo control group
1 | CN(C)[C@@H]1C(O)=C(C(N)=O)C(=O)[C@@]2(O)C(O)=C3C(=O)c4c(O)cccc4[C@@](C)(O)[C@H]3C[C@@H]12 [tetracycline hydrochloride] | more than 75% | Significantly lower scores
2 | meclocycline sulfosalicylate | more than 75% | Significantly lower scores
